Data: publication PMC11198769, “Enhancement of transcription efficiency by TAR-Tat system increases the functional expression of human olfactory receptors” (PLOS ONE, 2024)

Key:
Assay in all cases: Comprehensive analysis (screening) of hORs against n-hexanal
Type in all cases: cell-based
OR2W1 = target: T1, OR2W1 (Homo sapiens, UniProt Q9Y3N9); settings: OR2W1, 500 μM n-hexanal, n = 1
T1 construct: Lucy tag (N); FLAG (N); Rho tag (N); expressed in transfected cells; host or cells: Flp-In T-REx-293 cells stably expressing RTP1S, Gαolf and Ric8-b
T1 sequence (Q9Y3N9 1-320): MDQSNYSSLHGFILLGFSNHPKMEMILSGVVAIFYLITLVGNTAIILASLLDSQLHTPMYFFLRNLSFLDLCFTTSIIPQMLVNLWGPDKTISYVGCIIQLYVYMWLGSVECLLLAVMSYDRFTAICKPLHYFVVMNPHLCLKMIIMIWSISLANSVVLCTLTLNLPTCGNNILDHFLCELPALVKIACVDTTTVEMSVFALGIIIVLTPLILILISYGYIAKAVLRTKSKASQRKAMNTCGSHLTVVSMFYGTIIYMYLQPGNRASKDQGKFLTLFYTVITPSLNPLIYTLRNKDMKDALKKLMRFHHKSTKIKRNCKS
Description: (§1) Transfection was performed as described in the “hOR assay,” but 12.5 ng of 379 hOR plasmids (hOR/pBApo and hOR/pHEK) was transfected with the 12.5 ng pGlosensor^TM-22F cAMP biosensor plasmid (Promega) in 384 plates per well. After loading the GloSensor cAMP substrate and preincubation, the assay buffer was added (30 μL/well). After 10 min of equilibration, luminescence was measured (L0). Then, 50 mM n-hexanal, which was diluted with 10% DMSO/assay buffer, was added (4.7 μL/well). After 9 min, luminescence was measured (L9min). All the L9min values were subtracted by the L0 value (ΔL).

OR10C1 = target: T2, OR10C1 (Homo sapiens, UniProt Q96KK4); settings: OR10C1, 500 μM n-hexanal, with the TAR-Tat system (hOR/pHEK), n = 1
T2 construct: Lucy tag (N); expressed in transfected cells; host or cells: Flp-In T-REx-293 cells stably expressing RTP1S, Gαolf and Ric8-b
T2 sequence (Q96KK4 1-312): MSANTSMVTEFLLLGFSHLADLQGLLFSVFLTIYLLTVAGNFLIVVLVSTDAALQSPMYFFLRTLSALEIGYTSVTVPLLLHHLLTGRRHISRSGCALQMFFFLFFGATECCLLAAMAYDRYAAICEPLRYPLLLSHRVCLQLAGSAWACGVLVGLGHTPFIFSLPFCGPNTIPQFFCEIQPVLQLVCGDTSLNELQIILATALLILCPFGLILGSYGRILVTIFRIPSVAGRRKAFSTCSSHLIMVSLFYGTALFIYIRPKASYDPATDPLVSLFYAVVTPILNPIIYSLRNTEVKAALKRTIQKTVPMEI
Description: as §1

OR5P3 = target: T3, OR5P3 (Homo sapiens, UniProt Q8WZ94); settings: OR5P3, 500 μM n-hexanal, n = 1
T3 construct: Lucy tag (N); FLAG (N); Rho tag (N); expressed in transfected cells; host or cells: Flp-In T-REx-293 cells stably expressing RTP1S, Gαolf and Ric8-b
T3 sequence (Q8WZ94 1-311): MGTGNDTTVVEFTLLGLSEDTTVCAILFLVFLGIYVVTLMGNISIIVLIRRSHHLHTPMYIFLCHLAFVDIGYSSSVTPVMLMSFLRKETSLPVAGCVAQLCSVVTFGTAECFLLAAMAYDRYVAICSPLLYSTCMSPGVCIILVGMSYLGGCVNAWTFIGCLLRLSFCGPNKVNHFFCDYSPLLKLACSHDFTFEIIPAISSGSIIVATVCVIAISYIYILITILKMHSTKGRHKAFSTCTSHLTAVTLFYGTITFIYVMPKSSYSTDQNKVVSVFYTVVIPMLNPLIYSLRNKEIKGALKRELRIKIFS
Description: as §1

OR8B3 = target: T4, OR8B3 (Homo sapiens, UniProt Q8NGG8); settings: OR8B3, 500 μM n-hexanal, with the TAR-Tat system (hOR/pHEK), n = 1
T4 construct: Lucy tag (N); FLAG (N); Rho tag (N); expressed in transfected cells; host or cells: Flp-In T-REx-293 cells stably expressing RTP1S, Gαolf and Ric8-b
T4 sequence (Q8NGG8 1-313): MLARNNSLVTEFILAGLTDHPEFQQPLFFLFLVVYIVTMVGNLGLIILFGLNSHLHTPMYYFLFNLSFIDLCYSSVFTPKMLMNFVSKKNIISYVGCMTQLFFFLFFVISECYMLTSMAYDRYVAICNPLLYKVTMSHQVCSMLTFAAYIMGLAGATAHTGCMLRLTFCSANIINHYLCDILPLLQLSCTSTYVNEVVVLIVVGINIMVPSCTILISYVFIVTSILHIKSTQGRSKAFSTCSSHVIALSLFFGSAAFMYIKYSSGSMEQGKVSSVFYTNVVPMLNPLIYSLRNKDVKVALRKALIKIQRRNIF
Description: as §1

OR8B8 = target: T5, OR8B8 (Homo sapiens, UniProt Q15620); settings: OR8B8, 500 μM n-hexanal, with the TAR-Tat system (hOR/pHEK), n = 1
T5 construct: Lucy tag (N); FLAG (N); Rho tag (N); expressed in transfected cells; host or cells: Flp-In T-REx-293 cells stably expressing RTP1S, Gαolf and Ric8-b
T5 sequence (Q15620 1-311): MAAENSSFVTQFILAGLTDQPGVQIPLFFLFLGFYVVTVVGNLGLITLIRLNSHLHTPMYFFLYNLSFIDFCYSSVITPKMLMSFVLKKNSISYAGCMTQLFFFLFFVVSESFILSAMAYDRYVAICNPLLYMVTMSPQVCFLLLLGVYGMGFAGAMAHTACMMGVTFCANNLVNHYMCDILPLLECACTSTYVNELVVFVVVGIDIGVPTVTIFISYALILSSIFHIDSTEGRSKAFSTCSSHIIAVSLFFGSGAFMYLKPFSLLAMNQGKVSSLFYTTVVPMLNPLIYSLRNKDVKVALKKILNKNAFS
Description: as §1

OR52N4 = target: T6, OR52N4 (Homo sapiens, UniProt Q8NGI2); settings: OR52N4, 500 μM n-hexanal, with the TAR-Tat system (hOR/pHEK), n = 1
T6 construct: Lucy tag (N); expressed in transfected cells; host or cells: Flp-In T-REx-293 cells stably expressing RTP1S, Gαolf and Ric8-b
T6 sequence (Q8NGI2 1-321): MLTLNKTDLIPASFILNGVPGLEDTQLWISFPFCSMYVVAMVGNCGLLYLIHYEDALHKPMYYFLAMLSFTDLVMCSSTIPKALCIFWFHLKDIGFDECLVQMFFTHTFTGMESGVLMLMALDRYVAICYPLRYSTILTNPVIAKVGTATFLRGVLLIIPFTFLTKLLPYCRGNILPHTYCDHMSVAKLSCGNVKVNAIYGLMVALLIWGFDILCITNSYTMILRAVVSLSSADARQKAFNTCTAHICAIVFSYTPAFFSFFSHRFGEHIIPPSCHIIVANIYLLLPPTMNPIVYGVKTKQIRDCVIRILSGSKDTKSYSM
Description: as §1

[1] = with the TAR-Tat system (hOR/pHEK)
[2] = without the TAR-Tat system (control plasmid)

response value (ΔL) (OR2W1; [1]): 9310 | response value (ΔL) (OR2W1; [2]): 3463 | response value (ΔL) (OR10C1): > 500 | response value (ΔL) (OR5P3; [1]): 2931 | response value (ΔL) (OR5P3; [2]): 740 | response value (ΔL) (OR8B3): > 500 | response value (ΔL) (OR8B8): > 500 | response value (ΔL) (OR52N4): > 500
Compound: CCCCCC=O [n-hexanal]
